Data on 15 compounds can be found in patent US8846719B2, “Isoxazolo-pyridine derivatives” (Roche Palo Alto LLC, priority 2007, dated 2014).

The target in the assay is human GABA A receptor α5β3γ2 (Homo sapiens (Human), UniProt P18507+P31644). Put plainly: [3H]flumazenil competition binding assay, human GABA A α5β3γ2 receptors expressed in HEK293 cells. As to conditions: human receptor; displacement of [3H]flumazenil (0.5 nM); means of two determinations; read-out: hKi GABAAa5. The gist of the method: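 Competition for [3H]flumazenil binding on membranes of HEK293 cells transiently transfected with human α5β3γ2 receptors, in Krebs-tris buffer pH 7.5.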
Background: In a radioligand displacement assay an active substance lowers the binding of a labelled ligand.

For the compound `Cc1onc(-c2ccccc2)c1COc1ccc(C(=O)NCc2cc(C3CC3)[nH]n2)cn1` [Example 20, N-(5-Cyclopropyl-1H-pyrazol-3-ylmethyl)-6-(5-methyl-3-phenyl-isoxazol-4-ylmethoxy)-nicotinamide], the Ki worked out at 21.6 nM.

With `Cc1onc(-c2ccccc2F)c1COc1ccc(C(=O)NC(C)C)cn1` [Example 86, 6-[3-(2-Fluoro-phenyl)-5-methyl-isoxazol-4-ylmethoxy]-N-isopropyl-nicotinamide], the Ki was determined as 3.6 nM.

Consider `Cc1onc(-c2ccc(F)cc2)c1CNc1ccc(C(=O)NCC2CC2)cn1` [Example 174, N-Cyclopropylmethyl-6-{[3-(4-fluoro-phenyl)-5-methyl-isoxazol-4-ylmethyl]-amino}-nicotinamide], for which the Ki was determined as 7.6 nM.

`CCN1CCC(NC(=O)c2ccc(OCc3c(-c4ccccc4)noc3C)nc2)CC1` [Example 35, N-(1-Ethyl-piperidin-4-yl)-6-(5-methyl-3-phenyl-isoxazol-4-ylmethoxy)-nicotinamide]: the Ki was determined as 9.4 nM.

For `O=C(NCC(F)(F)F)c1ccc(OCc2conc2-c2ccc(F)cc2)nc1` [Example 330, 6-[3-(4-Fluoro-phenyl)-isoxazol-4-ylmethoxy]-N-(2,2,2-trifluoro-ethyl)-nicotinamide], the Ki stood at 15.1 nM.

`COC(=O)C(=O)Nc1ccc(OCc2c(-c3ccccc3)noc2C)nc1` [Example 180, N-[6-(5-Methyl-3-phenyl-isoxazol-4-ylmethoxy)-pyridin-3-yl]-oxalamic acid methyl ester]: the Ki was found to be 7.2 nM.

As for `Cc1onc(-c2ccccn2)c1COc1ccc(C(=O)N2CCSCC2)cn1` [Example 282, [6-(5-Methyl-3-pyridin-2-yl-isoxazol-4-ylmethoxy)-pyridin-3-yl]-thiomorpholin-4-yl-methanone], the Ki amounted to 6.8 nM.

As for `Cc1onc(-c2ccc(F)cc2)c1CNc1ccc(C(=O)NC(C)C)cn1` [Example 175, 6-{[3-(4-Fluoro-phenyl)-5-methyl-isoxazol-4-ylmethyl]-amino}-N-isopropyl-nicotinamide], the Ki is 3.7 nM.

Turning to `Cc1onc(-c2ccccc2)c1COc1cc(OCc2ccccc2)ccn1` [Example 56, 4-Benzyloxy-2-(5-methyl-3-phenyl-isoxazol-4-ylmethoxy)-pyridine], the Ki came out at 35.1 nM.

Turning to `CCOC(=O)CN1CCCC(NC(=O)c2ccc(OCc3c(-c4ccccc4)noc3C)nc2)C1` (stereo not drawn) [Example 40, (3-{[6-(5-Methyl-3-phenyl-isoxazol-4-ylmethoxy)-pyridine-3-carbonyl]-amino}-piperidin-1-yl)-acetic acid ethyl ester], the Ki worked out at 13.8 nM.

As to `Cc1onc(-c2ccccc2)c1COc1ccc(C(=O)N(C)S(=O)(=O)C2CC2)cn1` [Example 236, Cyclopropanesulfonic acid methyl-[6-(5-methyl-3-phenyl-isoxazol-4-ylmethoxy)-pyridine-3-carbonyl]-amide], the Ki was 36.7 nM.

Consider `Cc1onc(-c2cccc(F)c2)c1COc1ccc(C(=O)N2CCOCC2)cn1` [Example 94, {6-[3-(3-Fluoro-phenyl)-5-methyl-isoxazol-4-ylmethoxy]-pyridin-3-yl}-morpholin-4-yl-methanone], for which the Ki was found to be 48.1 nM.

With `CNC(=O)c1ccc(OCc2c(-c3ccncn3)noc2C)nc1` [Example 318, N-Methyl-6-(5-methyl-3-pyrimidin-4-yl-isoxazol-4-ylmethoxy)-nicotinamide], the Ki was 4.8 nM.

Regarding `Cc1onc(-c2ccccc2)c1COc1ccc(C(=O)NC2CCC2)cn1` [Example 28, N-Cyclobutyl-6-(5-methyl-3-phenyl-isoxazol-4-ylmethoxy)-nicotinamide], the Ki is 2.8 nM.

As to `Cc1nc(OCc2c(-c3ccccc3)noc2C)ccc1C(=O)NC1CCOCC1` [Example 60, 2-Methyl-6-(5-methyl-3-phenyl-isoxazol-4-ylmethoxy)-N-(tetrahydro-pyran-4-yl)-nicotinamide], the Ki stood at 38.7 nM.
